In ChEMBL document CHEMBL1201862, “PubChem BioAssay data set” (2004):
Activity calls are given as the source filed them.

Assays:
[1] = HEK-293T cell viability reduction – luminescence, B-cell screen hits, cytotoxicity control for BCR NF-kB inhibitor project, dose response (AID 489021); type: functional, cell-based;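 note: HEK-293T cells carrying an NF-kB luciferase reporter; cells exposed to compound for about 14 hours before viability readout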
Cytochrome P450 3A4 = Cytochrome P450 3A4 (Homo sapiens, UniProt P08684); details: Potency;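 note: confirmatory qHTS run detecting inhibitors and substrates of CYP3A4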
Sequence of Cytochrome P450 3A4 (P08684 whole entry): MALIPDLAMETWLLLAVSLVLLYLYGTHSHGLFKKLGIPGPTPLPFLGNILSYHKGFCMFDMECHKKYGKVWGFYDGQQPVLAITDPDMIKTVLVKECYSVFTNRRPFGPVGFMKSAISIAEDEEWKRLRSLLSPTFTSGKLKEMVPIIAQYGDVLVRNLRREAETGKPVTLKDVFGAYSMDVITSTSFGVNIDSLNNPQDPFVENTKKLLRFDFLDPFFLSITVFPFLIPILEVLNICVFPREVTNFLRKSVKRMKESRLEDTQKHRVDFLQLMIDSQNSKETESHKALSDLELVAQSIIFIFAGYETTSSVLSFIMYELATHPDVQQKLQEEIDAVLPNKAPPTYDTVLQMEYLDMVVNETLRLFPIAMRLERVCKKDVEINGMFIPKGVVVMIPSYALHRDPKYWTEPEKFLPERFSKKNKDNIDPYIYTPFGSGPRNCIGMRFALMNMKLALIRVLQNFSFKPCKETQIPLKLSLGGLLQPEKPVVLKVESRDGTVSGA

[2] = target: T1, Tyrosine-protein phosphatase non-receptor type 22 (Homo sapiens, UniProt Q9Y2R2); type: functional
T1 sequence (Q9Y2R2 whole entry): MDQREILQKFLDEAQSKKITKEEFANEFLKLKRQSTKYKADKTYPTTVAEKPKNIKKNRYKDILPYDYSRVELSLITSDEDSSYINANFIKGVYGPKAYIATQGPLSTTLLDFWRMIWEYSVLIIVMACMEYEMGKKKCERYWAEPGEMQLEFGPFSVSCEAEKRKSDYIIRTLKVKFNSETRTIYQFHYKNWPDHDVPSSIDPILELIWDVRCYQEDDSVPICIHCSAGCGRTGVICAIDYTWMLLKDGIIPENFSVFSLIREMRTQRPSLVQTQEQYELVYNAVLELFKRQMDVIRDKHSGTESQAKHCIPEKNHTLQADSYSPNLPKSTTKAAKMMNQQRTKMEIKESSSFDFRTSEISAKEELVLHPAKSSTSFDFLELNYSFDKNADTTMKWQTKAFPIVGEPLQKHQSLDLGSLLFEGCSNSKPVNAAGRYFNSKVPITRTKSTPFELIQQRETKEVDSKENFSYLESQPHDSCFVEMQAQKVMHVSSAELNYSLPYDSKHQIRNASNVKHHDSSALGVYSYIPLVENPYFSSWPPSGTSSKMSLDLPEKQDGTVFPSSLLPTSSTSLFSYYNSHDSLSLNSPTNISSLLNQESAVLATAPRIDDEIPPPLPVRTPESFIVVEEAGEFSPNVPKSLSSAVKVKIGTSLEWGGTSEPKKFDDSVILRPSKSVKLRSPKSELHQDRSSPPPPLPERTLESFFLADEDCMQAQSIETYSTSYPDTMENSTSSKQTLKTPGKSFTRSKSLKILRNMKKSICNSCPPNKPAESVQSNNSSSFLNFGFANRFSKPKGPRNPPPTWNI

[3] = target: T2, Tyrosine-protein phosphatase non-receptor type 7 (Homo sapiens, UniProt P35236); type: functional
T2 sequence (P35236 whole entry): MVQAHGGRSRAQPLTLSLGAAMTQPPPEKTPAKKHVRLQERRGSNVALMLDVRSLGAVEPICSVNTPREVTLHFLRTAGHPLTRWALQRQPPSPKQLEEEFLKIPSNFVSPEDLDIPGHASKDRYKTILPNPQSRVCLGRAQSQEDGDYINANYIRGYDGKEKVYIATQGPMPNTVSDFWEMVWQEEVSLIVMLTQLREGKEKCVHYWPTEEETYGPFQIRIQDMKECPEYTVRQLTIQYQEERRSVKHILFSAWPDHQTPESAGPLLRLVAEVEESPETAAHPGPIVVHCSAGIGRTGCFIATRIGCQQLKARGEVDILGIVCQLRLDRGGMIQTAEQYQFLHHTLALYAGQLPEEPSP

[4] = target: T1, Tyrosine-protein phosphatase non-receptor type 22; type: functional; remark: listed apart in the source
[5] = A cytotoxicity screen of small molecule inhibitors of the PhoP region in Salmonella typhi identified in the primary screen. [Related pubchem assays: 1850, 1864, 1985 ]; type: functional
[6] = target: Eukaryotic translation initiation factor 4E (Mus musculus, UniProt P63073); experiment: blockers of eIF4G binding by eIF4E – biochemical, TR-FRET, dose response (AID 855); type: functional;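 note: potency for disrupting eIF4E binding to eIF4GI seen as loss of FRET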
Sequence of Eukaryotic translation initiation factor 4E (P63073 whole entry): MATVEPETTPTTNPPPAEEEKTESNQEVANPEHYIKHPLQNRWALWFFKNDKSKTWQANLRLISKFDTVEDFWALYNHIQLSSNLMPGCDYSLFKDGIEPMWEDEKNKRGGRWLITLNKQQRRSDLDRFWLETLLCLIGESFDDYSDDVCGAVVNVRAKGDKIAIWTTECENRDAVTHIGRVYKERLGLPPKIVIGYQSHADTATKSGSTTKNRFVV

[7] = target: T3, Short transient receptor potential channel 4 (Mus musculus, UniProt Q9QUQ5); experiment: block of DAMGO-driven TRPC4 calcium entry – cell-based, HEK293 TRPC4/mu-opioid, Fluo-4 calcium, dose response (AID 434942); type: functional;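 note: potency of inhibitors blocking the TRPC4 calcium response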
T3 sequence (Q9QUQ5 whole entry): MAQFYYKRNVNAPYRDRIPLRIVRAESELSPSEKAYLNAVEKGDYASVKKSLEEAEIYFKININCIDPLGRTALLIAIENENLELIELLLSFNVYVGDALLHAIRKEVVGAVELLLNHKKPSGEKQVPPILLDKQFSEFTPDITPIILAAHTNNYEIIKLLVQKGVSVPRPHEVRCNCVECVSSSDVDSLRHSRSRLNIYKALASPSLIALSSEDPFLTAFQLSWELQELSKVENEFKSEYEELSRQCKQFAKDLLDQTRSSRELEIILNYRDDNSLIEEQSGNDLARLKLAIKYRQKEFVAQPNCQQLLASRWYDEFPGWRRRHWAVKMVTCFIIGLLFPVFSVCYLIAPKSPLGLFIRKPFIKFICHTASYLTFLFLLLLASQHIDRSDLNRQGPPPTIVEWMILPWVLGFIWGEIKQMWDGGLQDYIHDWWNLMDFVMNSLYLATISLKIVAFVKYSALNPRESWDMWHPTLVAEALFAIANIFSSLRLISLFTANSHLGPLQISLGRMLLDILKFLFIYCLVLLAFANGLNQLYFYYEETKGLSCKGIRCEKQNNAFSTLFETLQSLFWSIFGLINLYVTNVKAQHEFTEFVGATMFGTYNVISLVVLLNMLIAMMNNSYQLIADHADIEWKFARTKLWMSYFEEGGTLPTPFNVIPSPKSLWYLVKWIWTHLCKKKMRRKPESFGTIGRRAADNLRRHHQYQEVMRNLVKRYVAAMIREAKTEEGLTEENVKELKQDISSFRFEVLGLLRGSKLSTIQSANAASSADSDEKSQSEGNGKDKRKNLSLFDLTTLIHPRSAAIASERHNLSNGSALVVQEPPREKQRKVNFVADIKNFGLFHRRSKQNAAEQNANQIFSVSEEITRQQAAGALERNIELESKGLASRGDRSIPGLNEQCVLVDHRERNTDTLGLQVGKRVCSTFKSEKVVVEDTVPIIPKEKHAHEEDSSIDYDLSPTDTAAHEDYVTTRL

[8] = Luminescence Cell-Based Dose Retest to Confirm Inhibitors of Cancer Stem Cells. [Related pubchem assays (depositor defined):AID2717, AID2721]; type: functional; details: Homo sapiens
[9] = HepG2 cell cytotoxicity, dose response, cytotoxicity control for non-replicating M. tuberculosis project (AID 489018); type: functional; details: Mycobacterium tuberculosis
[10] = THP-1 cell cytotoxicity, dose response, cytotoxicity control for non-replicating M. tuberculosis project (AID 489025); type: functional
cells = type: functional
[11] = Vero E6 cell cytotoxicity, dose response, cytotoxicity control for non-replicating M. tuberculosis project, secondary assay (AID 492998); type: functional, VeroE6; details: Vero C1008
HEK293 = experiment: cells; details: Homo sapiens;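 note: cells exposed to compound for 14 hours overnight before viability readout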
Tumor necrosis factor = Tumor necrosis factor (Homo sapiens, UniProt P01375); experiment: analog potency on TNFa NF-kB signaling – cell-based, revised, SAR follow-up (AID 2337); type: functional
Sequence of Tumor necrosis factor (P01375 whole entry): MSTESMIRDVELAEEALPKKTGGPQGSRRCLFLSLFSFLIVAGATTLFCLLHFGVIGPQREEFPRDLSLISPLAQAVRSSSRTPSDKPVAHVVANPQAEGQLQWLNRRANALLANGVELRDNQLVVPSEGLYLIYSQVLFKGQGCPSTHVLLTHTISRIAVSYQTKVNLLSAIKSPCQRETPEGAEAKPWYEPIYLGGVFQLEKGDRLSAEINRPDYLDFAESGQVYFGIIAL

[12] = non-specific 3'UTR reporter inhibition in Clone20-Shn3RL – cell-based, Renilla luciferase, cherry-picked, counter-screen for Shn3 inhibitor project, dose response (AID 624133); type: functional
[13] = loss of viability in HepG2 cells – cell-based, CellTiter-Glo, cherry-picked, cytotoxicity control for Shn3 inhibitor project, dose response (AID 624134); type: functional
[14] = reduction of Shn3 3'UTR-driven luciferase in osteoblasts – cell-based, Clone20 osteoblasts, firefly luciferase, cherry-picked, dose response (AID 624132); type: functional;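 note: firefly luciferase luminescence from reporter carrying the Shn3 3'UTR in osteoblasts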

For `O=C(N/N=C/c1ccc(Cl)cc1Cl)c1ccc(-n2cnnn2)cc1`, the IC50 [1] was > 80 µM (inactive).

For `CCCCCCN(C(=O)CCCCCN1C(=O)NC(c2ccc(-c3ccccc3)cc2)C(C(=O)OCc2ccccc2)=C1C)C(C(=O)NCCCC)c1ccccn1` (configuration not stated), the AC50 (Cytochrome P450 3A4) was 1 µM (inconclusive).

For `Cc1ccc(C)c(CN2C(=O)COc3ccc(C(=O)c4ccccc4C(=O)O)cc32)c1`, the IC50 [2] was > 79.4 µM (inactive), the IC50 [3] was > 79.4 µM (inactive) and the IC50 [4] was > 79.4 µM (inactive).

In the case of `CCN1CCN(C(=O)Nc2ccc(Cc3ccc(NC(=O)N4CCN(CC)CC4)cc3)cc2)CC1`, the EC50 [5] is reported as > 50 µM (active).

With `C=CCn1c(S)nnc1-c1ccc2[nH]c(C)c(C)c2c1` the IC50 [6] was > 64 µM (inactive).

For `Cc1ccc(S(=O)(=O)Nc2c(C)n(C)n(-c3ccccc3)c2=O)cc1C(=O)NCc1ccccn1`, the IC50 [6] was > 64 µM (inactive).

With `c1ccc(-c2nc(NCc3ccco3)c3ccccc3n2)cc1` the EC50 [7] was 3.76 µM (active).

With `COc1cccc(Cn2nnc(C(=O)Nc3cc(Cl)ccc3OC)c2N)c1` the AC50 [8] was 0.498 µM (active) and the IC50 [1] was > 80 µM (inactive).

For `COc1ccc(/C=C2\Sc3ccc(C(=O)NCCN4CCCCCC4)cc3N(C)C2=O)cc1`, the CC50 [9] was 14.3 µM (active), the CC50 [10] was 17.9 µM (active) and the IC50 (cells) was 19 µM (active). For the same compound, the CC50 [11] was > 20 µM (active).

For `CC(=O)N1c2ccc(S(=O)(=O)N3CCN(c4ccc([N+](=O)[O-])cc4)CC3)cc2CC1C` (configuration not stated), the IC50 (HEK293) was 14.3 µM (active) and the IC50 (Tumor necrosis factor) was 3.27 µM (active).

With `CC(NCc1ccc(OCc2ccc(Cl)cc2)cc1)C(O)c1ccccc1` (configuration not stated) the CC50 [9] was 15.5 µM (active), the CC50 [10] was 9.8 µM (active) and the AC50 [12] was 21.2 µM (active). For the same compound, the AC50 [8] was 3.57 µM (active), the AC50 [13] was 14.6 µM (active) and the IC50 (cells) was 13.3 µM (active). The CC50 [11] was 14.6 µM (active) and the AC50 [14] was 10.9 µM (active).

In the case of `COC(=O)CC1[C@@]2(C)C[C@@]34OC5(C)OC6(CC[C@@]7(C)C(c8ccoc8)OC(=O)C(C(C)=O)C7[C@]6(O5)C(O)[C@@]3(O)C2O)[C@]14C` (some centres not stated), the AC50 (Cytochrome P450 3A4) is reported as 39.8 µM (inconclusive).

In the case of `CCn1cc(Br)c(C(=O)NC(=S)Nc2ccc(C(=O)OC)cc2)n1`, the IC50 [2] is reported as > 79.4 µM (inactive), the IC50 [3] is reported as > 79.4 µM (inactive) and the IC50 [4] is reported as > 79.4 µM (inactive).

For `Cc1ccc(NC(=O)COC(=O)c2cc(-c3cccs3)nn2-c2ccccc2)cc1[N+](=O)[O-]`, the IC50 [2] was > 79.4 µM (inactive), the IC50 [3] was > 79.4 µM (inactive) and the IC50 [4] was > 79.4 µM (inactive).
